Results published in publication PMC10468765, “Substituted 1,2,4-Triazoles as Novel and Selective Inhibitors of Leukotriene Biosynthesis Targeting 5-Lipoxygenase-Activating Protein” (ACS Omega, 2023).

Test system: 5-lipoxygenase-activating protein (FLAP)
Test: cells
Parameters: species or system human neutrophils; Inhibition of 5-LO product formation (LTB4, its trans isomers, 5-H(p)ETE) in A23187-stimulated human neutrophils, FLAP-dependent assay
Details: Neutrophil; 2.5 uM A23187

Row | Compound | IC50
1 | Clc1ccc(-n2c(SCc3nc4ccccc4s3)nnc2-c2cccs2)cc1 [6d] | 1360 ± 270 nM
2 | COc1ccc(-n2c(SCc3ccc(C(F)(F)F)o3)nnc2-c2cccs2)cc1 [6l] | 1420 ± 310 nM
3 | COc1ccc(-n2c(OCc3nc4ccccc4s3)nnc2-c2cccs2)cc1 [6n] | 3010 ± 840 nM
4 | COc1ccc(-n2c(SCc3nc4ccccc4s3)nnc2-c2ccccc2)cc1 [6q] | 1280 ± 190 nM
5 | COc1ccc(-n2c(SCc3nc4ccccc4s3)nnc2-c2ccc(C#N)cc2)cc1 [6s] | 1920 ± 580 nM

The remaining compounds from weak to strong by IC50, led by results:

Row | IC50 | Compound
6 | 6340 ± 790 nM | COc1ccc(-n2c(OCc3ccc4ccccc4n3)nnc2-c2cccs2)cc1 [6o]
7 | 4170 ± 270 nM | COc1cccc(-n2c(SCc3ccc4ccccc4n3)nnc2-c2cccs2)c1 [6k]
8 | 3690 ± 1020 nM | COc1ccc(-n2c(SCc3ccc4ccccc4n3)nnc2-c2cccs2)cc1 [6j]
9 | 2180 ± 650 nM | COc1ccc(-n2c(SCc3nc4ccccc4s3)nnc2-c2cccs2)cc1 [6a]
10 | 1930 ± 370 nM | N#Cc1ccc(-c2nnc(SCc3nc4ccccc4s3)n2-c2ccccc2)cc1 [6z]
11 | 1580 ± 590 nM | COc1cccc(-n2c(SCc3nc4ccccc4s3)nnc2-c2cccs2)c1 [6c]
